In ChEMBL document CHEMBL5131487, “Synthesis and biological evaluation of tetrahydroisoquinoline-derived antibacterial compounds” (Bioorg Med Chem, 2022):
Activity calls are given as the source filed them. The calls are words filed in the database; no cut-off is given here.

Tests used:
Staphylococcus aureus [1] = test: Antibacterial activity against Staphylococcus aureus ATCC 25923 assessed as inhibition of bacterial growth incubated for 20 hrs by CLSI broth microdilution method; type: functional
Escherichia coli = test: Antibacterial activity against Escherichia coli MG1655 assessed as inhibition of bacterial growth incubated for 20 hrs by CLSI broth microdilution method; type: functional
Bacillus subtilis [2] = test: Antibacterial activity against Bacillus subtilis 168 assessed as inhibition of bacterial growth incubated for 20 hrs by CLSI broth microdilution method; type: functional
3T3-L1 [3] = test: Cytotoxicity against mouse 3T3-L1 cells assessed as reduction in cell viability at 12.5 ug/ml measured after 24 hrs by MTT assay; type: toxicity, cell-based; conditions: 3t3-l1, 24 h, dose 12.5 µg/ml
3T3-L1 [4] = test: Cytotoxicity against mouse 3T3-L1 cells assessed as reduction in cell viability at 25 ug/ml measured after 24 to 72 hrs by MTT assay; type: toxicity, cell-based; conditions: time 24-72 hrs, dose 25 µg/ml
Bacillus subtilis [5] = test: Bactericidal activity against Bacillus subtilis 168 at 4 ug/ml incubated for 20 hrs in CAMHB followed by culturing onto CAMHA for 48 hrs by colony counting analysis; type: functional, organism-based; conditions: dose 4.0 µg/ml, time 68.0 hrs
Staphylococcus aureus [6] = test: Bactericidal activity against Staphylococcus aureus ATCC 25923 at 4 ug/ml incubated for 20 hrs in CAMHB followed by culturing onto CAMHA for 48 hrs by colony counting analysis; type: functional, organism-based; conditions: dose 4.0 µg/ml, time 68.0 hrs
Acinetobacter baumannii = test: Antibacterial activity against Acinetobacter baumannii assessed as inhibition of bacterial growth incubated for 20 hrs by CLSI broth microdilution method; type: functional
[7] = test system: Mycobacterium tuberculosis; test: Antibacterial activity against Mycobacterium tuberculosis H37Rv assessed as inhibition of bacterial growth; type: functional
[8] = Induction of phenotypic changes in Bacillus subtilis 168 assessed as abundance of ghost cells at 4XMIC measured after 1 hr by phase contrast microscopic analysis; type: functional
Staphylococcus aureus [9] = test: Antibacterial activity against Staphylococcus aureus ATCC 25923 assessed as inhibition of bacterial growth measured after repeated 30 day serial passage treatment by broth microdilution method; type: functional, organism-based
Bacillus subtilis [10] = test: Induction of phenotypic changes in Bacillus subtilis 168 assessed as bacterial population with localized swelling at 4XMIC measured after 1 hr by phase contrast microscopic analysis; type: functional
Acinetobacter baylyi = test: Antibacterial activity against Acinetobacter baylyi assessed as inhibition of bacterial growth incubated for 20 hrs by CLSI broth microdilution method; type: functional
[11] = (§1) Cytotoxicity against African green monkey Vero cells assessed as inhibition of cell growth at 50 ug/ml; type: toxicity, cell-based; conditions: chlorocebus sabaeus, Vero cells, at 50 µg/mL
Bacillus subtilis [12] = test: Induction of phenotypic changes in Bacillus subtilis 168 assessed as bacterial population with bulging phenotype at 4XMIC measured after 1 hr by phase contrast microscopic analysis; type: functional
Bacillus subtilis [13] = test: Induction of phenotypic changes in Bacillus subtilis 168 assessed as disruption of peptidoglycan synthesis by measuring inconsistency in NADA stain distribution throughout the cell at 4XMIC measured after 60 mins by NADA staining based fluorescent microscopy; type: functional
Enterococcus faecium = test: Antibacterial activity against Enterococcus faecium assessed as inhibition of bacterial growth incubated for 20 hrs by CLSI broth microdilution method; type: functional
[14] = test system: Mycobacterium tuberculosis; test: Antibacterial activity against Mycobacterium tuberculosis H37Rv assessed as inhibition of bacterial growth at 20 uM; type: functional
Streptococcus pneumoniae = test: Antibacterial activity against Streptococcus pneumoniae assessed as inhibition of bacterial growth incubated for 20 hrs by CLSI broth microdilution method; type: functional
[15] = Cytotoxicity against mouse 3T3-L1 cells assessed as cell viability at 25 ug/ml measured after 24 to 72 hrs by MTT assay relative to control; type: toxicity, cell-based; conditions: at 25 µg/mL, time 24-72 hrs, read-out: Activity
Vero = test: as §1; type: toxicity, cell-based; conditions: chlorocebus sabaeus, vero; dose 50 µg/ml

Compound	MIC95 (Staphylococcus aureus [1]) [µg/mL]	MIC95 (Escherichia coli) [µg/mL]	MIC95 (Bacillus subtilis [2]) [µg/mL]	other results
COc1ccc(-n2cc(C[N+]3(Cc4cn(-c5ccc(OC)cc5)nn4)CCc4cc(OC)c(OC)cc4C3)nn2)cc1	> 128	> 128	> 128	
COc1cc2c(cc1OC)C[N+](Cc1cn(-c3ccc(C(=O)N(C)C)cc3)nn1)(Cc1cn(-c3ccc(C(=O)N(C)C)cc3)nn1)CC2	> 128	> 128	> 128	
COc1cc2c(cc1OC)C[N+](Cc1cn(-c3cc(C(F)(F)F)cc(C(F)(F)F)c3)nn1)(Cc1cn(-c3cc(C(F)(F)F)cc(C(F)(F)F)c3)nn1)CC2	8	> 128	> 128	
COc1cccc(CC2c3cc(OC)c(OC)cc3CC[N+]2(Cc2cn(-c3ccc(C(C)(C)C)cc3)nn2)Cc2cn(-c3ccc(C(C)(C)C)cc3)nn2)c1 (centres undefined)	4	> 128		Activity (3T3-L1 [3]): Toxic
COc1cc2c(cc1OC)C[N+](Cc1cn(-c3ccc([N+](=O)[O-])cc3)nn1)(Cc1cn(-c3ccc([N+](=O)[O-])cc3)nn1)CC2	> 128	> 128	> 128	
COc1cc2c(cc1OC)C[N+](Cc1cn(-c3ccc(OCc4ccccc4)cc3F)nn1)(Cc1cn(-c3ccc(OCc4ccccc4)cc3F)nn1)CC2	4	> 128	4	Activity (3T3-L1 [4]): Toxic; Activity (Bacillus subtilis [5]): Active; Activity (Staphylococcus aureus [6]): Active
COc1cc2c(cc1OC)C[N+](Cc1cn(-c3ccccc3)nn1)(Cc1cn(-c3ccccc3)nn1)CC2	> 128	> 128		
COc1cc2c(cc1OC)C[N+](Cc1cn(-c3ccc(Cl)nc3Cl)nn1)(Cc1cn(-c3ccc(Cl)nc3Cl)nn1)CC2	> 128	> 128	> 128	
COc1cc2c(cc1OC)C[N+](Cc1cn(-c3ccc4ccccc4c3)nn1)(Cc1cn(-c3ccc4ccccc4c3)nn1)CC2	32	> 128	32	
COc1cc2c(cc1OC)C[N+](Cc1cn(-c3ccc(C(C)(C)C)cc3)nn1)(Cc1cn(-c3ccc(C(C)(C)C)cc3)nn1)CC2	4	> 128	4	MIC95 (Acinetobacter baumannii): 128 µg/mL; MIC [7]: 6 µg/mL; Activity [8]: >50%; Activity (3T3-L1 [4]): Toxic; Activity (Staphylococcus aureus [9]): Active; Activity (Bacillus subtilis [5]): Active; Activity (Bacillus subtilis [10]): 20%; MIC95 (Acinetobacter baylyi): 128 µg/mL; Activity (Staphylococcus aureus [6]): Active; inhibition at 50 ug/ml [11]: 89%; Activity (Bacillus subtilis [12]): 10%; Activity (Bacillus subtilis [13]): Active; MIC95 (Enterococcus faecium): 8 µg/mL; inhibition at 20 µM [14]: > 90%; MIC95 (Streptococcus pneumoniae): 8 µg/mL
COc1cc2c(cc1OC)C[N+](Cc1cn(-c3ccc(COc4ccccc4)cc3)nn1)(Cc1cn(-c3ccc(COc4ccccc4)cc3)nn1)CC2	32	> 128	32	
COc1cc2c(cc1OC)C[N+](Cc1cn(-c3ccc(OCc4ccccc4)c(F)c3)nn1)(Cc1cn(-c3ccc(OCc4ccccc4)c(F)c3)nn1)CC2	4	> 128	4	Activity (Bacillus subtilis [5]): Active; Activity (Staphylococcus aureus [6]): Active; viability at 25 ug/ml [15]: > 85%; Activity (Vero): Non-Toxic
COc1cc2c(cc1OC)C[N+](Cc1cn(-c3ccc(Cl)cc3)nn1)(Cc1cn(-c3ccc(Cl)cc3)nn1)CC2	32	> 128	32	
COc1cc2c(cc1OC)C[N+](Cc1cn(-c3ccoc3)nn1)(Cc1cn(-c3ccoc3)nn1)CC2	> 128	> 128	> 128	
COc1cc2c(cc1OC)C[N+](Cc1cn(-c3ccc(C(F)(F)F)cc3C(F)(F)F)nn1)(Cc1cn(-c3ccc(C(F)(F)F)cc3C(F)(F)F)nn1)CC2	32	> 128	32	
COc1cc2c(cc1OC)C[N+](Cc1cn(-c3ccc(C#N)cc3)nn1)(Cc1cn(-c3ccc(C#N)cc3)nn1)CC2	> 128	> 128	> 128	
COc1cc2c(cc1OC)C[N+](Cc1cn(-c3ccc(-c4ccccc4)cc3)nn1)(Cc1cn(-c3ccc(-c4ccccc4)cc3)nn1)CC2	32	> 128		
COc1cc2c(cc1OC)C(Cc1ccccc1)[N+](Cc1cn(-c3ccc(C(C)(C)C)cc3)nn1)(Cc1cn(-c3ccc(C(C)(C)C)cc3)nn1)CC2 (centres undefined)	2	> 128		Activity (3T3-L1 [3]): Toxic
